Key:
Assay in all cases: Test G pre/postemergence
Format in all cases: in vivo
[1] = tested on: Italian ryegrass (Lolium multiflorum)
From the text: (§1) Seeds or nutlets of plant species selected from bermudagrass (Cynodon dactylon), Surinam grass (Brachiaria decumbens), large crabgrass (Digitaria sanguinalis), green foxtail (Setaria viridis), goosegrass (Eleusine indica), johnsongrass (Sorghum halepense), kochia (Kochia scoparia), pitted morningglory (Ipomoea lacunosa), purple nutsedge (Cyperus rotundus), common ragweed (Ambrosia elatior), black mustard (Brassica nigra), guineagrass (Panicum maximum), dallisgrass (Paspalum dilatatum), barnyardgrass (Echinochloa crus-galli), southern sandbur (Cenchrus echinatus), common sowthistle (Sonchus oleraceous), prickly sida (Sida spinosa), Italian ryegrass (Lolium multiflorum), common purslane (Portulaca oleracea), broadleaf signalgrass (Brachiaria platyphylla), common groundsel (Senecio vulgaris), common chickweed (Stellaria media), tropical spiderwort (Commelina benghalensis), annual bluegrass (Poa annua), downy bromegrass (Bromus tectorum), itchgrass (Rottboellia cochinchinensis), quackgrass (Elytrigia repens), Canada horseweed (Conyza canadensis), field bindweed (Convolvulus arvensis), spanishneedles (Bidens bipinnata), common mallow (Malva sylvestris), and Russian thistle (Salsola kali) were planted and treated preemergence with test chemicals formulated in a non-phytotoxic solvent mixture which included a surfactant.
(§2) At the same time, plants selected from these weed species were treated with postemergence applications of some of the test chemicals formulated in the same manner. Plants ranged in height from 2 to 18 cm (1- to 4-leaf stage) for postemergence treatments. Treated plants and controls were maintained in a greenhouse for 12 to 21 days, after which time all species were compared to controls and visually evaluated.
(§3) Plant response ratings, summarized in Table G, are based on a scale of 0 to 100 where 0 is no effect and 100 is complete control. A dash (-) response means no test result.

[2] = tested on: Surinam grass (Brachiaria decumbens)
From the text: as §1, §2, §3

[3] = tested on: annual bluegrass (Poa annua)
From the text: as §1, §2, §3

[4] = tested on: bermudagrass (Cynodon dactylon)
From the text: as §1, §2, §3

[5] = tested on: black mustard (Brassica nigra)
From the text: as §1, §2, §3

[6] = tested on: broadleaf signalgrass (Brachiaria platyphylla)
From the text: as §1, §2, §3

[7] = tested on: common mallow (Malva sylvestris)
From the text: as §1, §2, §3

[8] = tested on: dallisgrass (Paspalum dilatatum)
From the text: as §1, §2, §3

[9] = tested on: field bindweed (Convolvulus arvensis)
From the text: as §1, §2, §3

[10] = tested on: goosegrass (Eleusine indica)
From the text: as §1, §2, §3

[11] = tested on: green foxtail (Setaria viridis)
From the text: as §1, §2, §3

[12] = tested on: johnsongrass (Sorghum halepense)
From the text: as §1, §2, §3

[13] = tested on: pitted morningglory (Ipomoea lacunosa)
From the text: as §1, §2, §3

[14] = tested on: tropical spiderwort (Commelina benghalensis)
From the text: as §1, §2, §3

[15] = Postemergence, 250 g ai/ha, scale 0 to 100
[16] = Postemergence, 16 g ai/ha, scale 0 to 100
[17] = Postemergence, 31 g ai/ha, scale 0 to 100
[18] = Postemergence, 62 g ai/ha, scale 0 to 100
[19] = Postemergence, 125 g ai/ha, scale 0 to 100
[20] = Preemergence, 16 g ai/ha, scale 0-100
[21] = Preemergence, 31 g ai/ha, scale 0-100
[22] = Preemergence, 62 g ai/ha, scale 0-100
[23] = Preemergence, 125 g ai/ha, scale 0-100
[24] = Preemergence, 250 g ai/ha, scale 0-100

Nc1nc(C2CC2)nc(C(=O)[O-])c1Cl.[Na+] [Compound 77, 6-amino-5-chloro-2-cyclopropyl-4-pyrimidinecarboxylic acid monosodium salt]
15: Plant response rating, Dallisgrass [8, 18] | Plant response rating, Dallisgrass [8, 22] | Plant response rating, Goosegrass [10, 17]
35: Plant response rating, Bermudagrass [4, 18] | Plant response rating, Bermudagrass [4, 19] | Plant response rating, Dallisgrass [8, 19] | Plant response rating, Foxtail, Green [11, 18]
75: Plant response rating, Ryegrass, Italian [1, 24] | Plant response rating, Signalgrass [6, 22] | Plant response rating, Mallow [7, 17] | Plant response rating, Johnsongrass [12, 22] | Plant response rating, Spiderwort [14, 18]
0: Plant response rating, Ryegrass, Italian [1, 16] | Plant response rating, Ryegrass, Italian [1, 20] | Plant response rating, Ryegrass, Italian [1, 21] | Plant response rating, Ryegrass, Italian [1, 22] | Plant response rating, Surinam Grass [2, 16] | Plant response rating, Surinam Grass [2, 20] | Plant response rating, Bluegrass [3, 16] | Plant response rating, Bluegrass [3, 17] | Plant response rating, Bluegrass [3, 18] | Plant response rating, Bluegrass [3, 20] | Plant response rating, Bluegrass [3, 21] | Plant response rating, Bermudagrass [4, 20] | Plant response rating, Bermudagrass [4, 21] | Plant response rating, Bermudagrass [4, 22] | Plant response rating, Signalgrass [6, 16] | Plant response rating, Dallisgrass [8, 16] | Plant response rating, Dallisgrass [8, 17] | Plant response rating, Dallisgrass [8, 20] | Plant response rating, Goosegrass [10, 16] | Plant response rating, Goosegrass [10, 20] | Plant response rating, Foxtail, Green [11, 16] | Plant response rating, Foxtail, Green [11, 17] | Plant response rating, Foxtail, Green [11, 20]
70: Plant response rating, Surinam Grass [2, 15] | Plant response rating, Surinam Grass [2, 22] | Plant response rating, Signalgrass [6, 15] | Plant response rating, Bindweed, Field [9, 16] | Plant response rating, Johnsongrass [12, 18] | Plant response rating, Morningglory [13, 20]
98: Plant response rating, Bindweed, Field [9, 17] | Plant response rating, Bindweed, Field [9, 18]
5: Plant response rating, Surinam Grass [2, 21] | Plant response rating, Bluegrass [3, 22] | Plant response rating, Signalgrass [6, 20] | Plant response rating, Dallisgrass [8, 21] | Plant response rating, Goosegrass [10, 21] | Plant response rating, Goosegrass [10, 22] | Plant response rating, Foxtail, Green [11, 21]
85: Plant response rating, Black Mustard [5, 22] | Plant response rating, Mallow [7, 19] | Plant response rating, Dallisgrass [8, 24] | Plant response rating, Foxtail, Green [11, 23] | Plant response rating, Johnsongrass [12, 15] | Plant response rating, Johnsongrass [12, 19] | Plant response rating, Johnsongrass [12, 23] | Plant response rating, Spiderwort [14, 21]
55: Plant response rating, Goosegrass [10, 24]
40: Plant response rating, Ryegrass, Italian [1, 15] | Plant response rating, Ryegrass, Italian [1, 23] | Plant response rating, Bluegrass [3, 15] | Plant response rating, Bluegrass [3, 19] | Plant response rating, Bluegrass [3, 24] | Plant response rating, Black Mustard [5, 17] | Plant response rating, Mallow [7, 21] | Plant response rating, Foxtail, Green [11, 15] | Plant response rating, Foxtail, Green [11, 19]
95: Plant response rating, Black Mustard [5, 24] | Plant response rating, Signalgrass [6, 24] | Plant response rating, Mallow [7, 15] | Plant response rating, Bindweed, Field [9, 22] | Plant response rating, Johnsongrass [12, 24] | Plant response rating, Spiderwort [14, 22] | Plant response rating, Spiderwort [14, 23]
80: Plant response rating, Mallow [7, 18] | Plant response rating, Mallow [7, 23] | Plant response rating, Mallow [7, 24] | Plant response rating, Bindweed, Field [9, 20]
30: Plant response rating, Ryegrass, Italian [1, 18] | Plant response rating, Ryegrass, Italian [1, 19] | Plant response rating, Signalgrass [6, 17] | Plant response rating, Mallow [7, 20] | Plant response rating, Dallisgrass [8, 23]
65: Plant response rating, Surinam Grass [2, 19] | Plant response rating, Mallow [7, 16] | Plant response rating, Goosegrass [10, 15] | Plant response rating, Foxtail, Green [11, 22] | Plant response rating, Johnsongrass [12, 17] | Plant response rating, Johnsongrass [12, 21]
20: Plant response rating, Ryegrass, Italian [1, 17] | Plant response rating, Bluegrass [3, 23] | Plant response rating, Bermudagrass [4, 17] | Plant response rating, Johnsongrass [12, 16]
90: Plant response rating, Surinam Grass [2, 23] | Plant response rating, Black Mustard [5, 23] | Plant response rating, Signalgrass [6, 23] | Plant response rating, Bindweed, Field [9, 21] | Plant response rating, Foxtail, Green [11, 24] | Plant response rating, Morningglory [13, 18] | Plant response rating, Morningglory [13, 21] | Plant response rating, Spiderwort [14, 19]
100: Plant response rating, Surinam Grass [2, 24] | Plant response rating, Bindweed, Field [9, 15] | Plant response rating, Bindweed, Field [9, 19] | Plant response rating, Bindweed, Field [9, 23] | Plant response rating, Bindweed, Field [9, 24] | Plant response rating, Morningglory [13, 15] | Plant response rating, Morningglory [13, 19] | Plant response rating, Morningglory [13, 22] | Plant response rating, Morningglory [13, 23] | Plant response rating, Morningglory [13, 24] | Plant response rating, Spiderwort [14, 15] | Plant response rating, Spiderwort [14, 24]
25: Plant response rating, Surinam Grass [2, 18] | Plant response rating, Black Mustard [5, 16] | Plant response rating, Goosegrass [10, 23]
60: Plant response rating, Bermudagrass [4, 24] | Plant response rating, Black Mustard [5, 15] | Plant response rating, Black Mustard [5, 19] | Plant response rating, Black Mustard [5, 20] | Plant response rating, Black Mustard [5, 21] | Plant response rating, Signalgrass [6, 19] | Plant response rating, Morningglory [13, 17] | Plant response rating, Spiderwort [14, 20]
10: Plant response rating, Surinam Grass [2, 17] | Plant response rating, Bermudagrass [4, 16] | Plant response rating, Bermudagrass [4, 23] | Plant response rating, Signalgrass [6, 21] | Plant response rating, Johnsongrass [12, 20] | Plant response rating, Spiderwort [14, 16]
50: Plant response rating, Bermudagrass [4, 15] | Plant response rating, Black Mustard [5, 18] | Plant response rating, Signalgrass [6, 18] | Plant response rating, Mallow [7, 22] | Plant response rating, Dallisgrass [8, 15] | Plant response rating, Goosegrass [10, 18] | Plant response rating, Goosegrass [10, 19] | Plant response rating, Morningglory [13, 16] | Plant response rating, Spiderwort [14, 17]

Source: patent US8802597B2, “Herbicidal pyrimidines” (E I du Pont de Nemours and Company, priority 2003, dated 2014)
